The source of these data is article PMC7949122 (The Journal of Biological Chemistry, 2021).

Non-standard residues stand in square brackets, D forms with d. Residues, ends and D or L forms follow the SMILES beside them. No end group written: not given here. Hyp = O=C(O)[C@@H]1C[C@@H](O)CN1; 2Thi = N[C@@H](Cc1cccs1)C(=O)O; Gly(N-cHex) = O=C(O)CNC1CCCCC1

In test [1] the target is T1, mutant human B2R(Ø) lacking AltB2R expression (Homo sapiens, UniProt P30411).
T1 construct: expressed in transfected cells; host or cells: HEK293A
T1 sequence (P30411 1-391): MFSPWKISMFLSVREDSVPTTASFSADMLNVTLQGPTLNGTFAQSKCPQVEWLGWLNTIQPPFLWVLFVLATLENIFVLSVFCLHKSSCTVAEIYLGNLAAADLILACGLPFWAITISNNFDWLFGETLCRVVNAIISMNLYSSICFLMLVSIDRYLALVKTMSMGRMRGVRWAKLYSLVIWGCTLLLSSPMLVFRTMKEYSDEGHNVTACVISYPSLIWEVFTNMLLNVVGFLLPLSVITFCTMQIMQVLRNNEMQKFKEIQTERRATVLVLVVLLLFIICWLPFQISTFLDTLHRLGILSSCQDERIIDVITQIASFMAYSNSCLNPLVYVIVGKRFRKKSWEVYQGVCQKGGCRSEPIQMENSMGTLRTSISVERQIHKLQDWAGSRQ
Nature of the test: Competitive displacement of [3H]-BK binding, living B2R(Ø)-transfected HEK293A cells. The settings on record: n = 3. How it is done: Black and gray, negative controls with secondary antibodies only; blue, ^FlagB2R transfected cells; red, ^FlagB2R^(Ø) transfected cells. […] Reported Kd are expressed in nM. Bmax is expressed in fmol/10^6 cells.
Radioligand competition binding assay was performed using adherent living HEK293A cells transiently transfected with B2R or B2R^(Ø), as we previously described ([54]). […] Saturation binding assays were performed using adherent living HEK293A cells transiently transfected with B2R or B2R^(Ø). […] After the incubation time, cells were washed twice with ice-cold PBS, lysed with 200 μl of 0.1 N sodium hydroxide, and transferred into scintillation vials containing 4 ml scintillation liquid. The radioactivity was measured with a β-counter and data were analyzed using GraphPad 6.01 (GraphPad Software, Inc).
In general terms: Loss of bound radioactivity is the signal in a displacement assay; it reports binding, not function.

Test [2] deals with T2, mutant human B2R(Ø) lacking AltB2R expression (Gαi2) (Homo sapiens, UniProt P30411).
T2 construct: expressed in transfected cells; host or cells: HEK293A
T2 sequence (P30411 1-391): T1 sequence (P30411 1-391)
Nature of the test: BRET G protein coupling Gαi2-RLuc2/GFP10-Gγ1, B2R(Ø)-transfected HEK293A cells. In kind it is cell-based. To be noted: HEK293-A; relative to maximum B2R-induced BRET response; mean ± SD, n = 4; read-out: Emax, Gαi2/Gγ1 dissociation, B2R(Ø). The source says: (§1) To test this hypothesis, we used live-cell bioluminescence resonance energy transfer (BRET) measurements to monitor the activation of G proteins by B2R. HEK293A cells were cotransfected with vectors coding for Gαq-RlucII or Gαi2/3-RlucII, Gβ, GFP10-Gγ1, and B2R or B2R^(Ø). In this experimental setting, the dissociation of Gαq-RlucII or Gαi2/3-RlucII from GFP10-Gγ1 results in a decrease of BRET signals. BRET data in Figure 6, A–C are presented relative to the maximum B2R-induced BRET response.
(§2) D, β-arrestin2 recruitment at the plasma membrane after stimulation with NG291 in HEK293A cells transfected with B2R and B2R^(Ø) by following BRET proximity of β-arr2-RLuc2 and rGFP-CAAX. […] Note.
(§3) BRET assays were performed as previously described ([56]). Briefly, HEK293A cells were grown in 96-well plates for 48 h after transient transfection with 10 μg BRET constructs (Gαq-RLuc2, Gβ1, and GFP10-Gγ1) (Gαi2-Rluc2, Gβ1, and GFP10-Gγ1) (Gαi3-Rluc2, Gβ1, and GFP10-Gγ1) (β-arrestin2-Rluc2 and rGFP-CAAX) and B2R or B2R^(Ø). Cells were washed twice with stimulation buffer (10 mM HEPES pH 7.4, 1 mM CaCl2, 0.5 mM MgCl2, 4.2 mM KCl, 146 mM NaCl, 5.5 mM glucose) and incubated for 1 h in 80 μl stimulation buffer at room temperature. […] BRET readings were collected in the […] (Rluc2) and […] (GFP10) windows, and BRET signal was calculated as a ratio of GFP10 on Rluc2. […]
On the technique in general: BRET reads energy transfer from a luciferase to a nearby fluorophore.

The next test concerns the target T3, human B2R (Gαi3) (Homo sapiens, UniProt P30411).
T3 construct: expressed in transfected cells; host or cells: HEK293A
T3 sequence (P30411 1-391): T1 sequence (P30411 1-391)
Nature of the test: BRET G protein coupling Gαi3-RLuc2/GFP10-Gγ1, B2R-transfected HEK293A cells. In kind it is cell-based. To be noted: HEK293-A; relative to maximum B2R-induced BRET response; mean ± SD, n = 4; †p < 0.05 vs B2R(Ø); read-out: Emax, Gαi3/Gγ1 dissociation, B2R.
Text: as §1, §2, §3

A further test concerns the target T4, human B2R (Gαq) (Homo sapiens, UniProt P30411).
T4 construct: expressed in transfected cells; host or cells: HEK293A
T4 sequence (P30411 1-391): T1 sequence (P30411 1-391)
Put plainly: BRET G protein coupling Gαq-RLuc2/GFP10-Gγ1, B2R-transfected HEK293A cells. In kind it is cell-based. The settings on record: HEK293-A; relative to maximum B2R-induced BRET response; mean ± SD, n = 3; †p < 0.05 vs B2R(Ø); read-out: Emax, Gαq/Gγ1 dissociation, B2R.
Text: as §1, §2, §3

In test [3] the target is T5, mutant human B2R(Ø) lacking AltB2R expression (β-arrestin2) (Homo sapiens, UniProt P30411).
T5 construct: expressed in transfected cells; host or cells: HEK293A
T5 sequence (P30411 1-391): T1 sequence (P30411 1-391)
Nature of the test: BRET β-arrestin2 recruitment at the plasma membrane, B2R(Ø)-transfected HEK293A cells. In kind it is cell-based.
Text: as §2
(§4) Since both G proteins and β-arrestins commonly participate in activation of MAPK pathways, we extended the BRET analysis to determine the effects of AltB2R on the efficacy of β-arrestin2 recruitment at the plasma membrane of HEK293A cells transfected with vectors coding for β-arrestin2-RLucII, rGFP-CAAX, and B2R or B2R^(Ø). BRET signals were monitored after addition of NG291.
as §3

The test system of test [4] is mutant human B2R(Ø) lacking AltB2R expression (ERK1/2 phosphorylation). Nature of the test: ERK1/2 phosphorylation (AlphaLISA SureFire Ultra), B2R(Ø)- versus B2R-transfected HEK293A cells. In kind it is cell-based. The settings on record: 1 μM agonist, n = 2. How it is done:
(§5) To consolidate the western blot data, AlphaLISA assays were also conducted in parallel in the same cell lines for the quantitative analyses of B2R-stimulated ERK1/2 phosphorylation (Fig. 5, B and C).
(§6) Quantitative densitometry analysis of pERK1/2 levels over time (top right). pERK/total ERK ratios were calculated for each time point.
On the technique in general: Alpha assays give light when donor and acceptor beads are brought close together.

For another test, the target named is T6, human B2R (β-arrestin2) (Homo sapiens, UniProt P30411).
T6 construct: expressed in transfected cells; host or cells: HEK293A
T6 sequence (P30411 1-391): T1 sequence (P30411 1-391)
Put plainly: BRET β-arrestin2 recruitment at the plasma membrane, B2R-transfected HEK293A cells. In kind it is cell-based. To be noted: HEK293-A.
Text: as §2, §4, §3

Test [5] has as its target T1, mutant human B2R(Ø) lacking AltB2R expression. Put plainly: Inositol phosphate (IP1) production, IP-One Gq assay (FRET), B2R(Ø)-transfected HEK293A cells (lacking AltB2R). In kind it is cell-based. To be noted: for Emax: HEK293-A, Emax in B2R(Ø) versus B2R cells, read-out: reduction of efficacy (Emax) for IP1 formation in cells without AltB2R expression. The protocol: This construct is a monocistronic version of B2R with the mutation C168T. In this mutant, a premature stop codon is introduced in the AltB2R coding sequence (Q11stop) in a manner synonymous for B2R (L56 L). Thus, the B2R encodes B2R and AltB2R, whereas mutant B2R^(Ø) encodes only B2R.
as §5, §6
HeLa, HEK293T, and HEK293A cells were maintained in Dulbecco's modified Eagle's medium (DMEM) containing 10% fetal bovine serum (FBS) (Wisent, #080-450) and 1% antibiotic-antimycotic (Wisent, #450-115-EL) under standard conditions. HEK293A cells were transiently transfected with the pcDNA3.1-vector containing the cDNA of human B2R or B2R^(Ø), using polyethylenimine (PEI) or JetPrime (Polyplus). HeLa cells were transiently transfected with B2R and AltB2R constructs using GeneCellin (Bulldog Bio Inc) or JetPrime (Polyplus) transfection reagent, as per the manufacturer’s instructions, and incubated 24 h at 37 °C, unless otherwise stated.
Inositol monophosphate (IP1) production was determined using the IP-One Gq assay kits (Cisbio, #62IPAPEB), according to the manufacturer's instructions. Fluorescence resonance energy transfer (FRET) signals were measured with a Tecan M1000 plate reader.

Test [6] deals with T7, mutant human B2R(Ø) lacking AltB2R expression (Gαi3) (Homo sapiens, UniProt P30411).
T7 construct: expressed in transfected cells; host or cells: HEK293A
T7 sequence (P30411 1-391): T1 sequence (P30411 1-391)
Put plainly: BRET G protein coupling Gαi3-RLuc2/GFP10-Gγ1, B2R(Ø)-transfected HEK293A cells. In kind it is cell-based. The settings on record: HEK293-A; relative to maximum B2R-induced BRET response; mean ± SD, n = 4; read-out: Emax, Gαi3/Gγ1 dissociation, B2R(Ø).
Text: as §1, §2, §3

The target of the next test is T8, human B2R (Gαi2) (Homo sapiens, UniProt P30411).
T8 construct: expressed in transfected cells; host or cells: HEK293A
T8 sequence (P30411 1-391): T1 sequence (P30411 1-391)
Nature of the test: BRET G protein coupling Gαi2-RLuc2/GFP10-Gγ1, B2R-transfected HEK293A cells. In kind it is cell-based. The settings on record: HEK293-A; relative to maximum B2R-induced BRET response; mean ± SD, n = 4; ††p < 0.01 vs B2R(Ø); read-out: Emax, Gαi2/Gγ1 dissociation, B2R.
Text: as §1, §2, §3

Test [7] concerns the target T9, mutant human B2R(Ø) lacking AltB2R expression (Gαq) (Homo sapiens, UniProt P30411).
T9 construct: expressed in transfected cells; host or cells: HEK293A
T9 sequence (P30411 1-391): T1 sequence (P30411 1-391)
Nature of the test: BRET G protein coupling Gαq-RLuc2/GFP10-Gγ1, B2R(Ø)-transfected HEK293A cells. To be noted: HEK293-A; relative to maximum B2R-induced BRET response; mean ± SD, n = 3; read-out: Emax, Gαq/Gγ1 dissociation, B2R(Ø). In kind it is cell-based.
Text: as §1, §2, §3

Take `CC(=O)Nc1ccc(/C=C/C(=O)NCC(=O)N(C)c2ccc(Cl)c(COc3cccc4ccc(C)nc34)c2Cl)cn1` [FR173657]: the “binding affinity, B2R versus B2R(Ø)” value in test [1] was “same affinities”.
As for `N=C(N)NCCC[C@H](NC(=O)[C@H](Cc1cccs1)NC(=O)CN(C(=O)[C@H](CO)NC(=O)[C@H](Cc1cccs1)NC(=O)CNC(=O)[C@@H]1C[C@@H](O)CN1C(=O)[C@@H]1CCCN1C(=O)[C@@H](N)CCCNC(=N)N)C1CCCCC1)C(=O)O` [NG291, [Hyp^3,Thi^5,^NChg^7,Thi^8]-BK] (H-RP[Hyp]G[2Thi]S[Gly(N-cHex)][2Thi]R-OH; N-terminus and C-terminus assumed), the “binding affinity, B2R versus B2R(Ø)” value in [1] is listed as “same affinities”. Also, the Emax in test [2] was determined as 66 ± 12%; at human B2R (Gαi3), 100 ± 21%; on human B2R (Gαq) it was 100 ± 10%; in [3] (HEK293-A, β-arr2-RLuc2 and rGFP-CAAX, mean ± SD, n = 3) it was 88 ± 9%; at human B2R (β-arrestin2), 100 ± 10%; in test [5], 22%. Besides, the Emax is 60 ± 22% in [6], 100 ± 11% at human B2R (Gαi2) and 74 ± 8% in test [7]. In addition, in test [3] (BRET, B2R versus B2R(Ø), BK: data not shown), the “recruitment of β-arrestin2, cells expressing or not AltB2R” value is “no difference in the recruitment of β-arrestin2”. Moreover, in test [4], the “maximal levels of phospho-ERK1/2 (AlphaLISA), B2R(Ø) versus B2R” value was “decreased maximal levels of phospho-ERK1/2”. The “potency (EC50) for IP1 formation, B2R- versus B2R(Ø)-transfected cells” value in [5] (comparison of EC50 between B2R and B2R(Ø), unpaired t-test) was “no significant difference in potencies (EC50 values)”.
In the case of `COc1ccc(C[C@@H](CN[C@@H](CCCNC(=N)N)C(=O)O)NC(=O)[C@@H]2CCCN2C(=O)[C@H](CO)NC(=O)[C@H](Cc2cccs2)NC(=O)CNC(=O)[C@@H]2C[C@@H](O)CN2C(=O)[C@@H]2CCCN2C(=O)[C@@H](N)CCCNC(=N)N)cc1` [RMP-7, [Hyp^3,Thi^5,(4-Me)Tyr^8(ΨCH2NH)Arg^9]-BK] (HELM PEPTIDE1{R.P.[Hyp].G.[O=C([C@H](Cc1cccs1)N[*:1])[*:2]].S.P.[COc1ccc(C[C@@H](CN[C@@H](CCCNC(=N)N)C(=O)O)N[*:1])cc1]}$$$$V2.0), the Emax in test [5] amounted to 16%.
Take “RPPGFSPFR [BK, H-Arg^1-Pro^2-Pro^3-Gly^4-Phe^5-Ser^6-Pro^7-Phe^8-Arg^9-OH]”: in test [1], the “binding affinity, B2R versus B2R(Ø)” value was “same affinities”.
